Assay results published in patent US20220146526A1, “METHOD FOR EVALUATING SAMPLE, ANALYSIS METHOD, METHOD FOR DETECTING DEGRADED SAMPLE, MARKER FOR DETECTING DEGRADED BLOOD PLASMA SAMPLE, AND MARKER FOR DETECTING DEGRADED SERUM SAMPLE” (SHIMADZU CORPORATION, priority 2019, published 2022).

Assays:
Type in all cases: physicochemical, human
[1] = GC/MS of blood plasma sample: time from blood collection to centrifugation (Table A); details: for Rate of increase or decrease: detection intensity relative to 1 at 15 minutes; for Rate of increase or decrease / Increase or decrease: blood collection to centrifugation; for Increase or decrease: detection intensity; for Rate of increase or decrease (second value, decrease) / Rate of increase or decrease (first value, increase): different from individual to individual, relative to 1 at 15 minutes, collection to centrifugation; for Rate of increase or decrease (second value, decrease): individuals with decrease; for Rate of increase or decrease (first value, increase): individuals with increase
Procedure: (§1) At room temperature, 5 mL of blood from a healthy subject was taken into a blood-collecting vessel containing EDTA, and the blood-collecting vessel was inverted for mixing, then cooled, and allowed to stand at 4° C. Here, in order to investigate how the detection intensity of molecules contained in the sample was affected in a case where the time to cooling was set to 5 minutes or more as compared to that in a case where the time to cooling was set to 1 minute or less, preparations were performed under both the former condition and the latter condition. After standing, the blood sample was subjected to centrifugation under a condition of 4° C., 3000 rpm, and 15 minutes. […] After centrifugation, the blood-collecting vessel was left to stand at room temperature for 30 minutes, and the blood plasma was isolated during this 30 minutes. The obtained blood plasma sample was frozen and stored. Here, in order to investigate how the detection intensity of molecules contained in the sample was affected in cases where freezing and thawing was performed 4 times, 6 times, and 10 times after freezing as compared to that in a case where freezing and thawing was performed 2 times after freezing, freezing and thawing was performed under the respective conditions of 2, 4, 6, and 10 times.
(§2) Frozen blood plasma samples and serum samples were subjected to GC/MS or LC/MS. In GC/MS, the blood plasma samples and serum samples were subjected to methoxymation and trimethylsilylation and then introduced to GC-MS.
(§3) GC/MS was conducted using GCMS·TQ8040 (Shimadzu Corporation) that was a GC·MS equipped with AOC·20i (Shimadzu Corporation) as an autosampler.
(§4) Column: BPX5 (inner diameter of 0.25 mm, length of 30 m, and film thickness of 0.25 μm) (SGE)
(§5) Column temperature: maintained at 60° C. for 2 minutes, then raised at 15° C./min, and maintained at 330° C. for 3 minutes.
(§6) Inlet temperature: 250° C.
(§7) Carrier gas control mode: constant linear velocity of 39.0 cm/sec
(§8) Sample introduction method: split (split ratio of 30:1) Injection volume: 1 μL
(§9) Ionization method: electron ionization
(§10) Ionization current: 60 μA
(§11) Interface temperature: 280° C.
(§12) Ion source temperature: 200° C.
(§13) Mode: multiple reaction monitoring (MRM)
The rate of increase or decrease in Table A is the value of detection intensity relative to 1 that is the detection intensity in a case where the time from blood collection to centrifugation is set to 15 minutes.

[2] = GC/MS of blood plasma sample: number of times of freezing and thawing (Table C); details: for Rate of increase or decrease: detection intensity relative to 1 at 2 times; for Increase or decrease: detection intensity; for Rate of increase or decrease (second value, decrease) / Rate of increase or decrease (first value, increase): different from individual to individual, relative to 1 at 2 times; for Rate of increase or decrease (second value, decrease): individuals with decrease; for Rate of increase or decrease (first value, increase): individuals with increase
Procedure: as §1, §2, §3, §4, §5, §6, §7, §8, §9, §10, §11, §12, §13
The rate of increase or decrease in Table C is the value of detection intensity relative to 1 that is the detection intensity in a case where the number of times of freezing and thawing is set to 2 times.

[3] = GC/MS of blood plasma sample: time from blood collection to cooling of blood (Table B); design: key to Rate of increase or decrease / Rate of increase or decrease (first value, increase): detection intensity relative to 1 at cooling time ≤1 min; details: for Rate of increase or decrease: detection intensity relative to 1 at 1 minute or less, blood collection to cooling 5 minutes; for Increase or decrease: detection intensity, blood collection to cooling 5 minutes or more vs 1 minute or less
Procedure: as §1, §2, §3, §4, §5, §6, §7, §8, §9, §10, §11, §12, §13
Table B presents compounds of which the detection intensity increased or decreased by 30% or more in a case where the time from blood collection to cooling of blood, when a blood plasma sample was analyzed by GC/MS, was set to 5 minutes or more as compared to that in a case where the time was set to 1 minute or less. The rate of increase or decrease in Table B is the value of detection intensity relative to 1 that is the detection intensity in a case where the time from blood collection to cooling is set to 1 minute or less.

[4] = GC/MS of serum sample: time from centrifugation to isolation (Table H); design: key to Rate of increase or decrease / Rate of increase or decrease (first value, increase): detection intensity relative to 1 at 30 min centrifugation-to-isolation; details: for Rate of increase or decrease: detection intensity relative to 1 at 30 minutes; for Increase or decrease: detection intensity
Outline: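 Values are GC/MS (EI, MRM) detection intensities of methoxymated/trimethylsilylated serum, normalised to 1 for the 30-min sample. Serum was isolated 30 min, 1 h or 6 h after room-temperature centrifugation (3500 rpm, 5 min) of blood.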

[5] = GC/MS of serum sample: number of times of freezing and thawing (Table I); design: key to Rate of increase or decrease / Rate of increase or decrease (first value, increase): detection intensity relative to 2 freeze-thaw cycles = 1
Outline: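 Detection intensities are ratios to the value after two freeze–thaw cycles, which is set as 1, compared against 4, 6 and 10 cycles. Analysis used methoxymation and trimethylsilylation derivatization, then GC/MS with EI ionization and multiple reaction monitoring on a BPX5 column. Serum came from blood held at room temperature and spun at 3500 rpm for 5 min.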

[6] = GC/MS of serum sample: time from blood collection to centrifugation (Table G); details: blood collection to centrifugation; for Rate of increase or decrease: detection intensity relative to 1 at 15 minutes; for Increase or decrease: detection intensity
Outline: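 Values express detection intensity as a ratio to the sample centrifuged 15 minutes after blood collection (taken as 1). Serum was derivatized by methoxymation and trimethylsilylation, then analysed by electron-ionization GC/MS using multiple reaction monitoring on a BPX5 column ramped from 60 to 330° C.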

[7] = LC/MS of serum sample: number of times of freezing and thawing (Table M); design: key to Rate of increase or decrease: detection intensity relative to 1 at 2 freeze-thaw cycles
Outline: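 Values are detection intensities relative to serum thawed twice, versus 4, 6 or 10 freeze-thaw cycles. Serum came from blood spun at room temperature, 3500 rpm for 5 minutes. Analysis: electrospray LC/MS in MRM mode, Discovery HS F5-3 column, 40° C, 0.1% formic acid in water and acetonitrile.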

[8] = LC/MS of blood plasma sample: time from blood collection to centrifugation (Table D); details: blood collection to centrifugation
Outline: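 Detection intensities are expressed relative to samples centrifuged 15 min after collection (=1), measured by electrospray LC/MS in MRM mode (Discovery HS F5-3, 40 °C, formic acid water/acetonitrile gradient at 0.25 mL/min). EDTA blood from a healthy donor was held at 4 °C, centrifuged at 4 °C, 3000 rpm, 15 min, and plasma frozen.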

[9] = freezing and thawing 10 times vs 2 times
[10] = freezing and thawing 6 times vs 2 times
[11] = detection intensity relative to 1 at 2 times, serum, GC/MS, freezing and thawing 4 times
[12] = detection intensity, serum, GC/MS, freezing and thawing 4 times vs 2 times

Compound | Increase or decrease ([1]; after 4 hours vs 15 minutes) | Rate of increase or decrease [3] | Increase or decrease [3] | Increase or decrease [2, 10] | Rate of increase or decrease [5, 11] | Increase or decrease [5, 12] | Rate of increase or decrease ([6]; after 4 hours) | Increase or decrease ([6]; after 4 hours vs 15 minutes) | other results
NCCc1c[nH]cn1 [Histamine] | Increase | 0.67 | Decrease | – | – | – | – | – | Rate of increase or decrease ([1]; after 4 hours): 1.78; Rate of increase or decrease ([2]; freezing and thawing 10 times): 1.63; Increase or decrease [2, 9]: Increase
O=C[C@H](O)[C@H](O)[C@H](O)CO [Ribose] | – | – | Increase | Different from individual | 1.68 | Increase | 0.41 | Decrease | Rate of increase or decrease ([4]; after 1 hour): 1.76; Increase or decrease ([4]; after 1 hour vs 30 minutes): Increase; Rate of increase or decrease (second value, decrease) ([2]; freezing and thawing 6 times): 0.70; Rate of increase or decrease (first value, increase) ([2]; freezing and thawing 6 times): 1.39
CS(=O)(=O)CC[C@H](N)C(=O)O [Methionine sulfone] | Increase | 0.70 | Decrease | – | – | – | – | – | Rate of increase or decrease ([1]; after 4 hours): 4.98; Rate of increase or decrease ([2]; freezing and thawing 4 times): 1.77; Increase or decrease ([2]; freezing and thawing 4 times vs 2 times): Increase
O=c1ccn([C@H]2C[C@H](O)[C@@H](CO)O2)c(=O)[nH]1 [2′-Deoxyuridine] | – | 0.68 | Decrease | Different from individual | – | – | – | – | Rate of increase or decrease ([1]; after 12 hours): 1.43; Increase or decrease ([1]; after 12 hours vs 15 minutes): Increase; Rate of increase or decrease (second value, decrease) ([2]; freezing and thawing 6 times): 0.67; Rate of increase or decrease (first value, increase) ([2]; freezing and thawing 6 times): 1.43
O=C(O)C(O)Cc1ccccc1 (stereo not shown) [3-Phenyllactic acid] | – | – | Different from individual | – | 0.68 | Decrease | – | – | Rate of increase or decrease ([2]; freezing and thawing 10 times): 0.62; Increase or decrease [2, 9]: Decrease; Rate of increase or decrease (second value, decrease) ([3]; different from individual to individual, individuals with decrease, relative to 1 at 1 minute or less, collection to cooling 5 minutes): 0.60; Rate of increase or decrease (first value, increase) ([3]; different from individual to individual, individuals with increase, relative to 1 at 1 minute or less, collection to cooling 5 minutes): 1.47
CC(=O)NCCCC[C@H](N)C(=O)O [N6-acetyllysine] | – | 0.61 | Decrease | Decrease | 0.67 | Decrease | 1.55 | Increase | Increase or decrease ([4]; after 6 hours vs 30 minutes): Different from individual; Rate of increase or decrease (second value, decrease) ([4]; different from individual to individual, individuals with decrease, relative to 1 at 30 minutes, after 6 hours): 0.58; Rate of increase or decrease (first value, increase) ([4]; different from individual to individual, individuals with increase, relative to 1 at 30 minutes, after 6 hours): 1.71; Rate of increase or decrease ([2]; freezing and thawing 6 times): 0.57
O=C(O)C(=O)O [Oxalic acid] | Different from individual | 1.58 | Increase | – | 0.61 | Decrease | 1.31 | Increase | Rate of increase or decrease (second value, decrease) ([1]; after 4 hours): 0.32; Rate of increase or decrease (first value, increase) ([1]; after 4 hours): 3.80; Rate of increase or decrease ([4]; after 6 hours): 1.67; Increase or decrease ([4]; after 6 hours vs 30 minutes): Increase
O=c1[nH]c(=O)c2[nH]c(=O)[nH]c2[nH]1 [Uric acid] | – | 0.49 | Decrease | – | – | – | – | – | Rate of increase or decrease ([1]; after 12 hours): 1.89; Increase or decrease ([1]; after 12 hours vs 15 minutes): Increase; Rate of increase or decrease ([7]; 6 times of freezing and thawing, detection intensity relative to 1 at 2 times): 0.70; Number of times when compound is affected ([7]; serum sample, LC/MS, detection intensity changed by 30% or more vs 2 times of freezing and thawing): 6 times; Increase or decrease ([7]; serum sample, LC/MS, detection intensity vs 2 times of freezing and thawing): Decrease; Rate of increase or decrease ([8]; detection intensity relative to 1 at 15 minutes, after 12 hours): 1.52; Increase or decrease ([8]; detection intensity, after 12 hours vs 15 minutes): Increase; Rate of increase or decrease ([5]; 10 times of freezing and thawing, relative to 1 at 2 times, different from individual to individual, first value (increase)): 1.33; Rate of increase or decrease ([5]; 10 times of freezing and thawing, relative to 1 at 2 times, different from individual to individual, second value (decrease)): 0.66; Number of times when compound is affected ([5]; serum sample, GC/MS, detection intensity changed by 30% or more vs 2 times of freezing and thawing): 10 times; Increase or decrease ([5]; serum sample, GC/MS, detection intensity vs 2 times of freezing and thawing): Different from individual; Rate of increase or decrease ([6]; after 8 hours): 0.69; Increase or decrease ([6]; after 8 hours vs 15 minutes): Decrease
CCC(=O)C(=O)O [2-Ketobutyric acid] | Different from individual | 0.67 | Decrease | – | – | – | – | – | Rate of increase or decrease (second value, decrease) ([1]; after 4 hours): 0.64; Rate of increase or decrease (first value, increase) ([1]; after 4 hours): 1.48
NCCS(=O)O [Hypotaurine] | – | 1.43 | Increase | – | – | – | 1.69 | Increase | Rate of increase or decrease ([1]; after 8 hours): 1.36; Increase or decrease ([1]; after 8 hours vs 15 minutes): Increase
CC(C)CC(O)C(=O)O (stereo not shown) [2-Hydroxyisocaproic acid] | – | 1.31 | Increase | Decrease | – | – | – | – | Rate of increase or decrease ([2]; freezing and thawing 6 times): 0.66
